# Data from ChEMBL document CHEMBL3425489, “X-ray crystal structures of Escherichia coli RNA polymerase with switch region binding inhibitors enable rational design of squaramides with an improved fraction unbound to human plasma protein” (J Med Chem, 2015).
# How the values were obtained:
# [1] = Equilibrium solubility of the compound in phosphate buffer by LC-MS analysis
# [2] = test system: Plasma; assay: (§1) Fraction unbound (%) in human plasma at 10 uM by LC/MS-MS analysis; type: ADME, cell-free; settings: 10 µM
# [3] = octanol/water, pH 7.4
# Description: (§2) Partition coefficient, log D of the compound at pH 7.4 by shake flask method
# [4] = Inhibition of Escherichia coli switch region of RNA polymerase after 1 hr by transcription-coupled translation assay
# [5] = test system: Haemophilus influenzae; assay: Antibacterial activity against Haemophilus influenzae acrB by broth microdilution method; type: functional
# [6] = physchem; settings: octanol/water, pH 7.4
# Description: as §2
# [7] = as §1; type: ADME, cell-free
logD [6],fraction unbound at 10 µM [7],Compound,solubility thermodynamic [1],Fu [2],logD [3],IC50 [4],MIC [5]
,,Cc1noc(C)c1S(=O)(=O)Nc1c(N2CCCC(Cc3ccccc3)C2)c(=O)c1=O (centres undefined),985 µM,< 1%,-0.3,71000 nM,
,,Cc1noc(C)c1S(=O)(=O)Nc1c(N2CCC(NCc3ccc(C(F)(F)F)cc3)CC2)c(=O)c1=O,> 1000 µM,6.6%,0.8,290 nM,25 µM
,,Cc1noc(C)c1S(=O)(=O)Nc1c(N2CCC(CCc3ccccc3)CC2)c(=O)c1=O,636 µM,< 1%,0,320 nM,
,,Cc1noc(C)c1S(=O)(=O)Nc1c(N2CCC(N(C)CC3CCCCC3)CC2)c(=O)c1=O,12.2 µM,38%,-0.4,> 100000 nM,
,,CCCC/C(C)=C/C=C(\C)C(=O)c1c(O)cc(C(C)CC/C=C/NC(=O)OC)oc1=O (racemic),679 µM,< 1%,-0.3,1000 nM,
,,Cc1nn(C(F)F)cc1S(=O)(=O)Nc1c(N2CCC(Cc3ccccc3)CC2)c(=O)c1=O,> 1000 µM,< 1%,-0.1,7900 nM,100 µM
,,Cc1noc(C)c1S(=O)(=O)Nc1c(N2CCC(c3ccccc3)CC2)c(=O)c1=O,763 µM,< 1%,-0.6,26000 nM,
,,Cc1noc(C)c1S(=O)(=O)Nc1c(N2CCC(N(C)Cc3ccc(Cl)cc3)CC2)c(=O)c1=O,> 1000 µM,3.8%,0.5,330 nM,50 µM
,,Cc1noc(C)c1S(=O)(=O)Nc1c(N2CCC(NCc3ccc(F)cc3)CC2)c(=O)c1=O,52 µM,26%,0,2700 nM,> 200 µM
,,Cc1ccc(CC2CCN(c3c(NS(=O)(=O)c4c(C)noc4C)c(=O)c3=O)CC2)cc1,> 1000 µM,< 1%,0.5,290 nM,12.5 µM
,,Cc1noc(C)c1S(=O)(=O)Nc1c(N2CCC(C)CC2)c(=O)c1=O,773 µM,1.6%,-1,> 100000 nM,
,,CO[C@H]1/C=C/O[C@@]2(C)Oc3c(C)c(O)c4c(O)c(c(/C=N/N5CCN(C)CC5)c(O)c4c3C2=O)NC(=O)/C(C)=C\C=C\[C@H](C)[C@H](O)[C@@H](C)[C@@H](O)[C@@H](C)[C@H](OC(C)=O)[C@@H]1C [RIFAMPIN],751 µM,16.5%,1.3,,0.025 µM
,,CC(=O)NC[C@H]1CN(c2ccc(N3CCOCC3)c(F)c2)C(=O)O1 [LINEZOLID],,,,,12.5 µM
,,Cc1noc(C)c1C(=O)Nc1c(N2CCC(Cc3ccccc3)CC2)c(=O)c1=O,508 µM,< 1%,1.7,> 100000 nM,
,,O=c1c(NS(=O)(=O)c2ccccc2)c(N2CCC(Cc3ccccc3)CC2)c1=O,> 1000 µM,< 1%,0.2,2100 nM,200 µM
,,Cc1noc(C)c1S(=O)(=O)Nc1c(N2CCN(CCc3ccccc3)CC2)c(=O)c1=O,560 µM,4.9%,-0.4,43000 nM,
,,Cc1noc(C)c1S(=O)(=O)Nc1c(N2CCC(N(C)Cc3ccc(OC(F)F)cc3)CC2)c(=O)c1=O,,,,430 nM,50 µM
,,COc1ccc(CN2CCN(c3c(NS(=O)(=O)c4c(C)noc4C)c(=O)c3=O)CC2)cc1,497 µM,1.8%,-0.9,3000 nM,> 200 µM
0.1,< 0.01,Cc1noc(C)c1S(=O)(=O)Nc1c(N2CCC(Cc3ccccc3)CC2)c(=O)c1=O,> 1000 µM,,,280 nM,200 µM
,,Cc1noc(C)c1S(=O)(=O)Nc1c(N2CCN(Cc3ccc(C#N)cc3)CC2)c(=O)c1=O,> 1000 µM,2.9%,-1.3,1500 nM,200 µM
